In brackets after ≈: the same amount, converted by molar mass. Activity calls are given as the source filed them. No cut-off for these calls is given here.

For test [1], the system named is A549. Nature of the test: Antiproliferative activity against human A549 cells assessed as cell growth inhibition rate at 20 ug/mL incubated for 48 hrs by MTT assay relative to control. It counts as functional. Set-up: scale not given: the % may be the effect or the level left. As to conditions: dose 20 µg/ml.
For test [2], the system named is A549. The test is described as follows: Antiproliferative activity against human A549 cells assessed as cell growth inhibition incubated for 48 hrs by MTT assay. As to conditions: A549, 48 h. It counts as functional, cell-based.
Test [3] concerns A549. Nature of the test: Induction of apoptosis in human A549 cells assessed as inhibition of colony formation incubated for 10 days by crystal violet staining based assay. Particulars: dose 2.5-10 µM, time 10.0 day. It counts as functional, cell-based.
Test [4] relates to A549. Nature of the test: Antitumor activity against human A549 cells assessed as decrease in phosphorylation of Erk5 incubated for 48 hrs by Western blotting analysis. Format: functional, cell-based. Particulars: dose 2.5-10 µM.
The subject of test [5] is A549. The test is described as follows: Induction of apoptosis in human A549 cells assessed as chromatin condensation at 2.5 to 10 uM incubated for 48 hrs by DAPI staining based fluorescence microscopic analysis. Format: functional, cell-based. Particulars: dose 2.5-10 µM.
For test [6], the system named is A549. Nature of the test: Induction of apoptosis in human A549 cells assessed as irregular cell morphology at 2.5 to 10 uM incubated for 48 hrs by light microscopic analysis. Format: functional, cell-based. Particulars: dose 2.5-10 µM.
Test [7] deals with A549. Nature of the test: Induction of apoptosis in human A549 cells assessed as formation of apoptotic bodies at 2.5 to 10 uM incubated for 48 hrs by DAPI staining based fluorescence microscopic analysis. Format: functional, cell-based. As to conditions: dose 2.5-10 µM.

Consider `Cc1ccc(CN2CC=C(c3c[nH]c4ncccc34)CC2)cc1`, for which, in the test on A549 [1], the Activity was found to be 54.95%.
Regarding `N#Cc1ccc(C(=O)N2CC=C(c3c[nH]c4ncccc34)CC2)cc1`, the Activity with A549 [1] amounted to 21.45%.
On the same count and under the same terms, in the case of `Clc1ccc(CN2CC=C(c3c[nH]c4ncccc34)CC2)cc1` it was 0.74%; in that of `Brc1ccc(CN2CC=C(c3c[nH]c4ncccc34)CC2)cc1`, -25.78%; in that of `O=C(c1ccc(F)cc1)N1CC=C(c2c[nH]c3ncccc23)CC1`, 59.94%.
Same read-out and setting: the same measure for `Clc1cccc(CN2CC=C(c3c[nH]c4ncccc34)CC2)c1`: 52.55%; for `c1ccc2cc(CN3CCC(c4c[nH]c5ncccc45)CC3)ccc2c1`: 76.69%.
`N#Cc1ccc(CN2CC=C(c3c[nH]c4ncccc34)CC2)cc1`: the Activity in the test with A549 [1] is 9.76%.
On the same count and under the same terms, in the case of `O=C(c1ccc2ccccc2c1)N1CC=C(c2c[nH]c3ncccc23)CC1` it was 62.25%.
Still for that read-out and setting: in the case of `O=C(c1ccc(C(F)(F)F)cc1)N1CC=C(c2c[nH]c3ncccc23)CC1` it was 65.74%.
As for `Clc1ccccc1CN1CC=C(c2c[nH]c3ncccc23)CC1`, the Activity in the test on A549 [1] is listed as 84.18%. The concentration for half-maximal inhibition (IC50) in the test with A549 [2] is 12 µg/mL (≈ 37 µM).
Turning to `C1=C(c2c[nH]c3ncccc23)CCN(Cc2ccccc2)C1`, the Activity in the test on A549 [1] is given as 44.74%.
In the case of `COc1ccc(C(=O)N2CC=C(c3c[nH]c4ncccc34)CC2)cc1`, in the test on A549 [1], the Activity is 70.89%. Besides, the IC50 in the test with A549 [2] stood at 10.4 µg/mL (≈ 31.3 µM).
As for `FC(F)(F)Oc1ccc(CN2CC=C(c3c[nH]c4ncccc34)CC2)cc1`, the Activity in the test on A549 [1] is recorded as 46.56%.
For `O=C(c1ccccc1F)N1CC=C(c2c[nH]c3ccccc23)CC1`, the Activity in the test on A549 [1] was found to be 50.26%.
Regarding `O=C(c1ccc(Cl)cc1)N1CC=C(c2c[nH]c3ccccc23)CC1`, the Activity in the test with A549 [1] was determined as 67.52%.
Same read-out and setting: the same measure for `Clc1ccc(CN2CC=C(c3c[nH]c4ccccc34)CC2)cc1Cl`: 56.41%; for `COc1ccc(CN2CC=C(c3c[nH]c4ncccc34)CC2)cc1`: -3.33%; for `O=[N+]([O-])c1ccc(CN2CC=C(c3c[nH]c4ncccc34)CC2)cc1`: 16.85%.
Consider `Clc1ccc(CN2CC=C(c3c[nH]c4ncccc34)CC2)cc1Cl`, for which the Activity in the test with A549 [1] was 80.28%. For the same molecule, the IC50 in the test on A549 [2] was 7.33 µg/mL (≈ 20.5 µM).
Consider `S=C(c1ccc(Cl)cc1)N1CC=C(c2c[nH]c3ncccc23)CC1`, for which the Activity in the test with A549 [1] is 51.43%.
The same measure, in the same setting: in the case of `Fc1ccccc1C(=S)N1CC=C(c2c[nH]c3ncccc23)CC1` it was 65.92%; in that of `O=C(c1ccc(Cl)cc1)N1CCC(c2c[nH]c3ncccc23)CC1`, 50.17%.
For `O=C(c1cccc(Cl)c1)N1CC=C(c2c[nH]c3ncccc23)CC1`, the Activity with A549 [1] turned out to be 73.66%. Also, the IC50 in the test on A549 [2] came to 10.3 µg/mL (≈ 30.6 µM).
On to `O=C(c1ccccc1Cl)N1CC=C(c2c[nH]c3ncccc23)CC1`, for which the Activity with A549 [1] worked out at 52.62%.
For the molecule `C1=C(c2c[nH]c3ncccc23)CCN(Cc2ccc3ccccc3c2)C1`, the figures for the Activity entry in the test with A549 [3], in the test on A549 [4] and with A549 [1] were “Dose-Dependent Effect”, “Dose-Dependent Effect” and 90.08%, respectively. The result with A549 [5], in the test on A549 [6] and in the test with A549 [7] was Active. Further, the IC50 in the test on A549 [2] came to 4.56 µg/mL (≈ 13.4 µM).
As for `C1=C(c2c[nH]c3ccccc23)CCN(Cc2ccc3ccccc3c2)C1`, the Activity in the test on A549 [1] came out at 70.17%.
For `Fc1ccc(CN2CC=C(c3c[nH]c4ncccc34)CC2)cc1`, in the test with A549 [1], the Activity is on record as 43.89%.
Still for that read-out and setting: in the case of `Nc1ccc(C(=O)N2CC=C(c3c[nH]c4ncccc34)CC2)cc1` it was 45.12%; in that of `Fc1ccccc1CN1CC=C(c2c[nH]c3ncccc23)CC1`, 3.55%; in that of `O=C(c1ccc([N+](=O)[O-])cc1)N1CC=C(c2c[nH]c3ncccc23)CC1`, 69.77%.
Consider `O=C(c1ccccc1)N1CC=C(c2c[nH]c3ncccc23)CC1`, for which, in the test on A549 [1], the Activity is 58.37%.
Still for that read-out and setting: the same measure for `Cc1ccc(C(=O)N2CC=C(c3c[nH]c4ncccc34)CC2)cc1`: 41.24%.
Turning to `O=C(c1ccc(Cl)cc1)N1CC=C(c2c[nH]c3ncccc23)CC1`, the Activity result in the test with A549 [3] was “Dose-Dependent Effect”; in the test on A549 [4] it was “Dose-Dependent Effect”; in the test on A549 [1], 82.78%. The result with A549 [5], with A549 [6] and in the test on A549 [7] was Active. For the same molecule, the IC50 in the test with A549 [2] is 6.23 µg/mL (≈ 18.4 µM).
For `O=C(c1ccccc1F)N1CCC(c2c[nH]c3ncccc23)CC1`, the Activity with A549 [1] amounted to 48.02%.
Regarding `O=C(c1ccccc1F)N1CC=C(c2c[nH]c3ncccc23)CC1`, in the test on A549 [1], the Activity came out at 75.54%. Further, in the test on A549 [2], the IC50 came out at 8.52 µg/mL (≈ 26.5 µM).
Consider `Clc1ccc(CN2CCC(c3c[nH]c4ncccc34)CC2)cc1Cl`, for which, in the test on A549 [1], the Activity was 32.22%.
Take `O=C(c1ccc(Cl)c(Cl)c1)N1CC=C(c2c[nH]c3ncccc23)CC1`: the Activity with A549 [1] was found to be 66.12%.
On to `O=C(c1ccc(Br)cc1)N1CC=C(c2c[nH]c3ncccc23)CC1`, for which, in the test with A549 [1], the Activity is reported as 71.11%. Moreover, the IC50 in the test with A549 [2] turned out to be 11 µg/mL (≈ 28.7 µM).
As to `FC(F)(F)c1ccc(CN2CC=C(c3c[nH]c4ncccc34)CC2)cc1`, the Activity with A549 [1] stood at 44.64%.

These data come from ChEMBL document CHEMBL5390246, “Design, synthesis and SAR of novel 7-azaindole derivatives as potential Erk5 kinase inhibitor with anticancer activity” (Bioorg Med Chem, 2023).
